Data taken from PubChem BioAssay (NCI).
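1) Cells in 96-well plates. 2) Compound, 48 h, 5 concentrations. 3) Linear interpolation between surrounding doses. 4) Unreached endpoint = highest concentration. GI50: concentration for 50% inhibition of growth. TGI marks complete inhibition of growth.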

Tests used:
Assay in all cases: DTP human tumour cell line panel, 48 h
786-0 renal = test system: 786-0 renal
A498 renal = test system: A498 renal
A549 NSCLC = test system: A549 NSCLC
ACHN renal = test system: ACHN renal
CAKI-1 renal = test system: CAKI-1 renal
COLO 205 colon = test system: COLO 205 colon
EKVX NSCLC = test system: EKVX NSCLC
HCC-2998 colon = test system: HCC-2998 colon
HCT-116 colon = test system: HCT-116 colon
HCT-15 colon = test system: HCT-15 colon
HL-60(TB) leukemia = test system: HL-60(TB) leukemia
HOP-62 NSCLC = test system: HOP-62 NSCLC
HOP-92 NSCLC = test system: HOP-92 NSCLC
HT29 colon = test system: HT29 colon
IGROV1 ovarian = test system: IGROV1 ovarian
K-562 leukemia = test system: K-562 leukemia
KM12 colon = test system: KM12 colon
KM20L2 colon = test system: KM20L2 colon
M14 melanoma = test system: M14 melanoma
MALME-3M melanoma = test system: MALME-3M melanoma
MOLT-4 leukemia = test system: MOLT-4 leukemia
NCI-H226 lung = test system: NCI-H226 lung
NCI-H23 lung = test system: NCI-H23 lung
NCI-H460 lung = test system: NCI-H460 lung
NCI-H522 lung = test system: NCI-H522 lung
OVCAR-3 ovarian = test system: OVCAR-3 ovarian
OVCAR-4 ovarian = test system: OVCAR-4 ovarian
OVCAR-5 ovarian = test system: OVCAR-5 ovarian
OVCAR-8 ovarian = test system: OVCAR-8 ovarian
RPMI-8226 leukemia = test system: RPMI-8226 leukemia
SF-268 CNS = test system: SF-268 CNS
SF-295 CNS = test system: SF-295 CNS
SF-539 CNS = test system: SF-539 CNS
SK-MEL-2 melanoma = test system: SK-MEL-2 melanoma
SK-MEL-28 melanoma = test system: SK-MEL-28 melanoma
SK-MEL-5 melanoma = test system: SK-MEL-5 melanoma
SK-OV-3 ovarian = test system: SK-OV-3 ovarian
SN12C renal = test system: SN12C renal
SNB-19 CNS = test system: SNB-19 CNS
SNB-75 CNS = test system: SNB-75 CNS
SW-620 colon = test system: SW-620 colon
TK-10 renal = test system: TK-10 renal
U251 CNS = test system: U251 CNS
UACC-257 melanoma = test system: UACC-257 melanoma
UACC-62 melanoma = test system: UACC-62 melanoma
UO-31 renal = test system: UO-31 renal

O=C([CH-]C(=O)c1ccccc1)c1ccccc1.O=C([CH-]C(=O)c1ccccc1)c1ccccc1.[Nd+3].[OH-].[OH3+]
GI50 (786-0 renal): 7.79 µM
TGI (786-0 renal): 33.7 µM
GI50 (A498 renal): 11 µM
TGI (A498 renal): 39.6 µM
GI50 (A549 NSCLC): 17.2 µM
TGI (A549 NSCLC): 51.5 µM
GI50 (ACHN renal): 10.1 µM
TGI (ACHN renal): 30.1 µM
GI50 (CAKI-1 renal): 13.6 µM
TGI (CAKI-1 renal): 40.9 µM
GI50 (COLO 205 colon): 13.9 µM
TGI (COLO 205 colon): 31.4 µM
GI50 (EKVX NSCLC): 9.99 µM
TGI (EKVX NSCLC): 43.8 µM
GI50 (HCC-2998 colon): 9.11 µM
TGI (HCC-2998 colon): 26.6 µM
GI50 (HCT-116 colon): 5.26 µM
TGI (HCT-116 colon): 19 µM
GI50 (HCT-15 colon): 8.5 µM
TGI (HCT-15 colon): 34.1 µM
GI50 (HL-60(TB) leukemia): 1.8 µM
TGI (HL-60(TB) leukemia): 8.17 µM
GI50 (HOP-62 NSCLC): 3.58 µM
TGI (HOP-62 NSCLC): 18.4 µM
GI50 (HOP-92 NSCLC): 13.6 µM
TGI (HOP-92 NSCLC): 39.7 µM
GI50 (HT29 colon): 8.8 µM
TGI (HT29 colon): 26.2 µM
GI50 (IGROV1 ovarian): 11.5 µM
TGI (IGROV1 ovarian): 61.2 µM
GI50 (K-562 leukemia): 3.31 µM
TGI (K-562 leukemia): 19.1 µM
GI50 (KM12 colon): 6.27 µM
TGI (KM12 colon): 49.6 µM
GI50 (KM20L2 colon): 8.45 µM
TGI (KM20L2 colon): 28.8 µM
GI50 (M14 melanoma): 13.7 µM
TGI (M14 melanoma): 32.6 µM
GI50 (MALME-3M melanoma): 12.4 µM
TGI (MALME-3M melanoma): 53.2 µM
GI50 (MOLT-4 leukemia): 3.88 µM
TGI (MOLT-4 leukemia): 33.1 µM
GI50 (NCI-H226 lung): 1.94 µM
TGI (NCI-H226 lung): 8.28 µM
GI50 (NCI-H23 lung): 3.91 µM
TGI (NCI-H23 lung): 18.6 µM
GI50 (NCI-H460 lung): 6.18 µM
TGI (NCI-H460 lung): 25.3 µM
GI50 (NCI-H522 lung): 1.42 µM
TGI (NCI-H522 lung): 13.3 µM
GI50 (OVCAR-3 ovarian): 8.31 µM
TGI (OVCAR-3 ovarian): 26.6 µM
GI50 (OVCAR-4 ovarian): 16.4 µM
TGI (OVCAR-4 ovarian): > 100 µM
GI50 (OVCAR-5 ovarian): 22.3 µM
TGI (OVCAR-5 ovarian): 81.5 µM
GI50 (OVCAR-8 ovarian): 4.74 µM
TGI (OVCAR-8 ovarian): 38.4 µM
GI50 (RPMI-8226 leukemia): 6.04 µM
GI50 (SF-268 CNS): 6.51 µM
TGI (SF-268 CNS): 34.9 µM
GI50 (SF-295 CNS): 3.95 µM
TGI (SF-295 CNS): 22.8 µM
GI50 (SF-539 CNS): 15.8 µM
TGI (SF-539 CNS): 48 µM
GI50 (SK-MEL-2 melanoma): 9.48 µM
TGI (SK-MEL-2 melanoma): 27 µM
GI50 (SK-MEL-28 melanoma): 11.5 µM
TGI (SK-MEL-28 melanoma): 44.8 µM
GI50 (SK-MEL-5 melanoma): 3.94 µM
TGI (SK-MEL-5 melanoma): 17.2 µM
GI50 (SK-OV-3 ovarian): 14.5 µM
TGI (SK-OV-3 ovarian): 48.2 µM
GI50 (SN12C renal): 12.6 µM
TGI (SN12C renal): 70.7 µM
GI50 (SNB-19 CNS): 8.19 µM
TGI (SNB-19 CNS): 44.9 µM
GI50 (SNB-75 CNS): 2.49 µM
TGI (SNB-75 CNS): 7.25 µM
GI50 (SW-620 colon): 6.89 µM
TGI (SW-620 colon): 39.8 µM
GI50 (TK-10 renal): 26.4 µM
TGI (TK-10 renal): > 100 µM
GI50 (U251 CNS): 7.13 µM
TGI (U251 CNS): 40.3 µM
GI50 (UACC-257 melanoma): 15.2 µM
TGI (UACC-257 melanoma): 41.9 µM
GI50 (UACC-62 melanoma): 4.76 µM
TGI (UACC-62 melanoma): 22.2 µM
GI50 (UO-31 renal): 3.11 µM
TGI (UO-31 renal): 12.4 µM
